Experimental data taken from patent US20170247693A1 (priority 2016, published 2017).
Read-outs that look alike come from different tables or passages of the source.

Assays:
[1] = test system: uveal melanoma cells (Mel270, OMM2.3, OMM2.5, OMM1, 92.1); assay type: cell-based
HepG2 tumors = assay type: in vivo, SCID mice
caspase-3 [2] = assay type: cell-based; conditions: FLC4 infected with vACE-NT; normoxia; 72 h after administering DOX
caspase-3 [3] = assay type: cell-based, human; conditions: HepG2 infected with vACE-NT; normoxia; 72 h after administering DOX

For `COc1cccc2c1C(=O)c1c(O)c3c(c(O)c1C2=O)C[C@@](O)(C(=O)CO)C[C@@H]3O[C@H]1C[C@H](N)[C@H](O)[C@H](C)O1` [DOX, Doxorubicin], the “cell death in uveal melanoma cells” value [1] was “induce cell death”, the “reduction of tumor growth rate” value (HepG2 tumors; DOX 55 mg/kg IP twice a week, tumors infected with vACE-NT, light emission day 42 vs day 14) was 45% and the effect on tumors (HepG2 tumors; DOX 75 mg/kg IP twice a week, even in vACE-NT infected tumors) was “almost completely eradicate the tumors”. For the same molecule, the “growth rate of tumors on addition of DOX” value (HepG2 tumors; all tumors (vACE-NT, vACE-CREB, vACE-X3 infected), DOX 55 mg/kg) was “reduced the growth rate of all tumors”, the “increase of caspase-3 activation” value (caspase-3 [2]) was 12 fold and the “increase of caspase-3 activation” value (caspase-3 [3]) was 35 fold.
